From patent US20250188040A1, “PHARMACEUTICAL COMPOSITIONS COMPRISING WRN HELICASE INHIBITORS” (Vividion Therapeutics, Inc., priority 2022, published 2025)
Like-named read-outs stand apart in the source and are kept apart here.

Tests used:
[1] = molecular target: T1, WRN C727 (Homo sapiens, UniProt Q14191); experiment: Target engagement, in vitro (lysate), OCI-AML2; assay type: binding; details: read-out: OCI-AML2 WRN C727 TE50 in vitro (lysate)
T1 construct: endogenous in cells; host or cells: OCI-AML2
T1 sequence (Q14191 whole entry): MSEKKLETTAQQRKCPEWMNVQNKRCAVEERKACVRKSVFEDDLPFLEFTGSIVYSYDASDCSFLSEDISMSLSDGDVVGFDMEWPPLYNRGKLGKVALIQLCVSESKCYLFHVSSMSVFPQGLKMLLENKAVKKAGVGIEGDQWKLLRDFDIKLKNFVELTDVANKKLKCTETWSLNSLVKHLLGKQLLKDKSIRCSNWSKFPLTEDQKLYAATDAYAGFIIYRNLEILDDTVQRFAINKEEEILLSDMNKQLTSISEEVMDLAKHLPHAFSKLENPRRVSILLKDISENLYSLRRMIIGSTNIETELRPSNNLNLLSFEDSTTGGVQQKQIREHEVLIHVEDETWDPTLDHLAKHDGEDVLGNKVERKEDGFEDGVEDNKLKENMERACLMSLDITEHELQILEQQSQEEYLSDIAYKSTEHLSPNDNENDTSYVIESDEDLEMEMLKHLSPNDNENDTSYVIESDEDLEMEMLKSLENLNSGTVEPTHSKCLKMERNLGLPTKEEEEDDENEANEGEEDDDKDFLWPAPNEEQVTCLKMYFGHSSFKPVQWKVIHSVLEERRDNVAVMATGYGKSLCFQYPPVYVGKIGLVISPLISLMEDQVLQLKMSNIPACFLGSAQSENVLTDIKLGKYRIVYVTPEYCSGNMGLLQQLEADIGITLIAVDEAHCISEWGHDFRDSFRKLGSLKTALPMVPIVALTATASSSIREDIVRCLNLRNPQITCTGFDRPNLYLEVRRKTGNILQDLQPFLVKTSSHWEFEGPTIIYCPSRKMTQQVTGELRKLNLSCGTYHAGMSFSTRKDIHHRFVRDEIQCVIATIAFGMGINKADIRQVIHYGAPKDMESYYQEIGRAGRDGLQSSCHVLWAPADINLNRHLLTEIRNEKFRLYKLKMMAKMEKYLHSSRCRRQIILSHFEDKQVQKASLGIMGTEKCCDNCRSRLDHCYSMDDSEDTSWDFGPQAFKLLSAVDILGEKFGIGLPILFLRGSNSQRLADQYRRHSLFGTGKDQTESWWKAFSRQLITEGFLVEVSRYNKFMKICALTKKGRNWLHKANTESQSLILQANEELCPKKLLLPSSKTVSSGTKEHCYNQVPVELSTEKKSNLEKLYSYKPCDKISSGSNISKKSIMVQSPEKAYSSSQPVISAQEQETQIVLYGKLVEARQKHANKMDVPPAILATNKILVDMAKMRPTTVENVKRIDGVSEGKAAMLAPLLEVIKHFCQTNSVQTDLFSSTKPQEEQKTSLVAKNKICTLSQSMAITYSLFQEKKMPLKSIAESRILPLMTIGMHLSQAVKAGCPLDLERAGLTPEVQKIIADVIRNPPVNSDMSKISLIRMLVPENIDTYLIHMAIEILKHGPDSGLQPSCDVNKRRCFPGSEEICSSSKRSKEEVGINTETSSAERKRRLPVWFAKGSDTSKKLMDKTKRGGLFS
In short: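 OCI-AML2 intact cells or lysates dosed with compound, then a cysteine-reactive probe; after trypsin digestion, probe-labelled peptides were streptavidin-enriched and quantified by nano-LC parallel reaction monitoring MS. Engagement (%) relative to DMSO controls.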

[2] = test system: SW480 cells; experiment: Cell growth assay (CellTiter-Glo 2.0), SW480 MSS cell line; details: Homo sapiens, SW480, 120 h, read-out: Cell Growth Inhibition GI50 SW480
[3] = test system: HCT 116 cells; experiment: Cell growth assay (CellTiter-Glo 2.0), HCT 116 MSI-H cell line; details: Homo sapiens, HCT-116, 120 h, read-out: Cell Growth Inhibition GI50 HCT-116
Procedure: The effects of compound on cellular viability were determined using the CellTiter-Glo® 2.0 Luminescent Cell Viability Assay (Promega, Madison, WI).
SW480 cells were seeded at 1,000 cells per well in Eagle's Minimum Essential Medium (EMEM) with 10% FBS. Both cell lines were seeded in a volume of 50 μL medium per well. […] The concentration range was adjusted as needed for compounds of different potencies. The cells treated with compounds were incubated for 5 days at 37° C. in 5% CO2. […] The plate was then read on a Clariostar plate reader (BMG Labtech, Cary, NC) in luminescence mode. The previously measured baseline cell viability was subtracted from the luminescence value of each well, and cell viability (% of DMSO) was plotted as a function of log compound concentration. The EC50 was then calculated for each compound using Dotmatics Software (San Diego, CA).

[4] = molecular target: hWRN(519-1227)_C-H3CV-GFP-10His (Homo sapiens, UniProt Q14191); experiment: Helicase Assay for WRN Inhibition (ATP-dependent, fluorescence based)
hWRN(519-1227)_C-H3CV-GFP-10His, sequence (Q14191 519-1227): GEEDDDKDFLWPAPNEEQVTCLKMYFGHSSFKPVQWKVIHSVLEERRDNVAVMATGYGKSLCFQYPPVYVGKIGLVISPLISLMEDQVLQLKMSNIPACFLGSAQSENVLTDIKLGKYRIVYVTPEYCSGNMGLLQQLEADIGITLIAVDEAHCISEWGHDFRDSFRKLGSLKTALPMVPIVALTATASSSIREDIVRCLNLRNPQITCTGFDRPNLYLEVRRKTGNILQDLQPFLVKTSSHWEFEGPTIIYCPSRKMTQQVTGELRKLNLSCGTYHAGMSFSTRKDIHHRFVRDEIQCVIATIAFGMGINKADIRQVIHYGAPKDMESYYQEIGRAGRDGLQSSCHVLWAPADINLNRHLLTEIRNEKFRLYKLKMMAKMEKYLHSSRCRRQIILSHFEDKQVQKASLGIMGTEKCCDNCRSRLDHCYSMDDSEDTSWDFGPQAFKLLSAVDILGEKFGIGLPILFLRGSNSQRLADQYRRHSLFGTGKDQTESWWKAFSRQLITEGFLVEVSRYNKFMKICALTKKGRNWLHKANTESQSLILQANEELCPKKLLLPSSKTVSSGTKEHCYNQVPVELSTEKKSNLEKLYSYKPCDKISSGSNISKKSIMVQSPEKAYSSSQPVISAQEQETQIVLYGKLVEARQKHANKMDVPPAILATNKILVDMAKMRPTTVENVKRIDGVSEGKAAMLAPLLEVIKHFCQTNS
Procedure: Effects of compounds on WRN helicase activity were assessed with the Helicase Assay for WRN Inhibition. This is an ATP-dependent (inclusion of ATP is important and is required for this assay) fluorescence based assay using recombinant WRN and a fluorogenic DNA substrate.
WRN activity was normalized to signal from wells without WRN protein (background, 0% activity) and wells with protein treated only with DMSO (positive control, 10000 activity). For each compound the potency of inhibition (IC50) was determiined using Graphpad Prism.

[5] = WRN Helicase IC50, 30 min preincubation with ATP, 30 min reaction

Row | IC50 [1] [nM] | GI50 [2] [nM] | GI50 [3] [nM] | IC50 [4] [nM] | IC50 [4, 5] [nM] | SMILES
1 | 4090 | 13200 | 265 | 650 |  | CC(C)(C)c1ncc(C(=O)N2CC(=CS(=O)(=O)C3CCOCC3)C2)c(Oc2ccccc2)n1 [Example 62, (2-(tert-butyl)-4-phenoxypyrimidin-5-yl)(3-(((tetrahydro-2H-pyran-4-yl)sulfonyl)methylene)azetidin-1-yl)methanone]
2 | 500 | 31000 | 30.6 |  | 87.9 | COC[C@@H](/C=C/S(C)(=O)=O)NC(=O)c1cnc(C(C)(C)C)nc1Oc1ccccc1 [Example 63, (R,E)-2-(tert-butyl)-N-(1-methoxy-4-(methylsulfonyl)but-3-en-2-yl)-4-phenoxypyrimidine-5-carboxamide]
3 | > 100000 | 36000 | 2300 |  | 8600 | COC[C@H](/C=C/S(C)(=O)=O)NC(=O)c1cnc(C(C)(C)C)nc1Oc1ccccc1 [Example 64, (S,E)-2-(tert-butyl)-N-(1-methoxy-4-(methylsulfonyl)but-3-en-2-yl)-4-phenoxypyrimidine-5-carboxamide]
4 | 1170 | 25400 | 87 |  | 300 | CC(C)(C)c1ncc(C(=O)N[C@H](/C=C/S(C)(=O)=O)CC2CC2)c(Oc2ccccc2)n1 [Example 65, (S,E)-2-(tert-butyl)-N-(1-cyclopropyl-4-(methylsulfonyl)but-3-en-2-yl)-4-phenoxypyrimidine-5-carboxamide]
5 | 380 | 21800 | 30.2 |  | 113 | CC(C)(C)c1ncc(C(=O)N[C@H](/C=C/S(C)(=O)=O)C2CCC2)c(Oc2ccccc2)n1 [Example 66, (S,E)-2-(tert-butyl)-N-(1-cyclobutyl-3-(methylsulfonyl)allyl)-4-phenoxypyrimidine-5-carboxamide]
6 | 500 | 9780 | 43.9 |  | 140 | CC(C)(C)c1ncc(C(=O)N[C@H](/C=C/S(C)(=O)=O)C2CC(F)(F)C2)c(Oc2ccccc2)n1 [Example 67, (S,E)-2-(tert-butyl)-N-(1-(3,3-difluorocyclobutyl)-3-(methylsulfonyl)allyl)-4-phenoxypyrimidine-5-carboxamide]
7 | 1000 | 31400 | 230 |  | 180 | CSC[C@@H](/C=C/S(C)(=O)=O)NC(=O)c1cnc(C(C)(C)C)nc1Oc1ccccc1 [Example 68, (R,E)-2-(tert-butyl)-N-(4-(methylsulfonyl)-1-(methylthio)but-3-en-2-yl)-4-phenoxypyrimidine-5-carboxamide]
8 | 11000 | 51600 | 1220 |  | 3390 | CO[C@H](C)[C@@H](/C=C/S(C)(=O)=O)NC(=O)c1cnc(C(C)(C)C)nc1Oc1ccccc1 [Example 69, 2-(tert-butyl)-N-((3R,4R,E)-4-methoxy-1-(methylsulfonyl)pent-1-en-3-yl)-4-phenoxypyrimidine-5-carboxamide]
9 | 790 | > 58700 | 130 |  | 240 | CC(C)(C)c1ncc(C(=O)N[C@H](/C=C/S(C)(=O)=O)C2CCOCC2)c(Oc2ccccc2)n1 [Example 70, (S,E)-2-(tert-butyl)-N-(3-(methylsulfonyl)-1-(tetrahydro-2H-pyran-4-yl)allyl)-4-phenoxypyrimidine-5-carboxamide]
10 | 600 | 45200 | 46.7 |  | 160 | CC(C)(C)c1ncc(C(=O)N[C@H](/C=C/S(C)(=O)=O)C2CCC(F)(F)CC2)c(Oc2ccccc2)n1 [Example 72, (S,E)-2-(tert-butyl)-N-(1-(4,4-difluorocyclohexyl)-3-(methylsulfonyl)allyl)-4-phenoxypyrimidine-5-carboxamide]
11 | 470 | 16000 | 300 |  | 150 | CC(C)(C)c1ncc(C(=O)N[C@H](/C=C/S(C)(=O)=O)CC(F)F)c(Oc2ccccc2)n1 [Example 73, (S,E)-2-(tert-butyl)-N-(5,5-difluoro-1-(methylsulfonyl)pent-1-en-3-yl)-4-phenoxypyrimidine-5-carboxamide]
12 | 50000 | > 10000 | 3400 |  | 4900 | CS(=O)(=O)/C=C/CNC(=O)c1cnc(C2CCCCC2)nc1Oc1ccccc1 [Example 76, (E)-2-cyclohexyl-N-(3-(methylsulfonyl)allyl)-4-phenoxypyrimidine-5-carboxamide]
13 | 50000 | > 10000 | 2600 |  | 9330 | C[C@@H](/C=C/S(C)(=O)=O)NC(=O)c1cnc(C2CCCO2)nc1Oc1ccccc1 (stereo partly drawn) [Example 78, N—((S,E)-4-(methylsulfonyl)but-3-en-2-yl)-4-phenoxy-2-(tetrahydrofuran-2-yl)pyrimidine-5-carboxamide]
14 | 700 | 20000 | 280 |  | 550 | CS(=O)(=O)/C=C/[C@@H](NC(=O)c1cnc(C(F)(F)F)nc1Oc1ccccc1)C1CC1 [Example 82, (S,E)-N-(1-cyclopropyl-3-(methylsulfonyl)allyl)-4-phenoxy-2-(trifluoromethyl)pyrimidine-5-carboxamide]
15 | 380 | 19000 | 202 |  | 238 | C[C@@H](/C=C/S(C)(=O)=O)NC(=O)c1cnc(C(F)(F)C(F)(F)F)nc1Oc1ccccc1 [Example 83, (S,E)-N-(4-(methylsulfonyl)but-3-en-2-yl)-2-(perfluoroethyl)-4-phenoxypyrimidine-5-carboxamide]
16 | 220 | 11500 | 48.4 |  | 120 | COC[C@@H](/C=C/S(C)(=O)=O)NC(=O)c1cnc(C(F)(F)C(F)(F)F)nc1Oc1ccccc1 [Example 85, (R,E)-N-(1-methoxy-4-(methylsulfonyl)but-3-en-2-yl)-2-(perfluoroethyl)-4-phenoxypyrimidine-5-carboxamide]
17 | 10000 | 43000 | 245 |  | 1100 | CN(C)C(=O)C[C@@H](/C=C/S(C)(=O)=O)NC(=O)c1cnc(C(C)(F)F)nc1Oc1ccccc1 [Example 92, (S,E)-2-(1,1-difluoroethyl)-N-(5-(dimethylamino)-1-(methylsulfonyl)-5-oxopent-1-en-3-yl)-4-phenoxypyrimidine-5-carboxamide]
18 | 4190 | 87500 | 128 |  | 460 | CO[C@@H](C)[C@@H](/C=C/S(C)(=O)=O)NC(=O)c1cnc(C(C)(F)F)nc1Oc1ccccc1 [Example 93, 2-(1,1-difluoroethyl)-N-((3R,4S,E)-4-methoxy-1-(methylsulfonyl)pent-1-en-3-yl)-4-phenoxypyrimidine-5-carboxamide]
19 | 10000 | 40000 | 740 |  | 2000 | C[C@@H](/C=C/S(C)(=O)=O)NC(=O)c1cnc(C2(F)CC2)nc1Oc1ccccc1 [Example 99, (S,E)-2-(1-fluorocyclopropyl)-N-(4-(methylsulfonyl)but-3-en-2-yl)-4-phenoxypyrimidine-5-carboxamide]
20 | 6030 | 7860 | 374 |  | 1100 | C[C@@H](/C=C/S(C)(=O)=O)NC(=O)c1cnc(C2(C(F)(F)F)CC2)nc1Oc1ccccc1 [Example 101, (S,E)-N-(4-(methylsulfonyl)but-3-en-2-yl)-4-phenoxy-2-(1-(trifluoromethyl)cyclopropyl)pyrimidine-5-carboxamide]
21 | 3430 | 20400 | 359 |  | 1500 | C[C@@H](/C=C/S(C)(=O)=O)NC(=O)c1cnc(C2CC(F)(F)C2)nc1Oc1ccccc1 [Example 103, (S,E)-2-(3,3-difluorocyclobutyl)-N-(4-(methylsulfonyl)but-3-en-2-yl)-4-phenoxypyrimidine-5-carboxamide]
22 | 7430 | > 10000 | 4800 |  | 4600 | CS(=O)(=O)/C=C/CNC(=O)c1cnc(C2CCCC2)nc1Oc1ccc(F)cc1 [Example 112, (E)-2-cyclopentyl-4-(4-fluorophenoxy)-N-(3-(methylsulfonyl)allyl)pyrimidine-5-carboxamide]
23 | 2330 | 6200 | 1100 |  | 1800 | C[C@@H](/C=C/S(C)(=O)=O)NC(=O)c1cnc(C2CCCC2)nc1Oc1ccc(F)cc1 [Example 113, (S,E)-2-cyclopentyl-4-(4-fluorophenoxy)-N-(4-(methylsulfonyl)but-3-en-2-yl)pyrimidine-5-carboxamide]
24 | 30100 | > 10000 | 2100 |  | 2900 | C[C@@H](/C=C/S(C)(=O)=O)NC(=O)c1cnc(C2CCCC2)nc1Oc1ccccc1F [Example 115, (S,E)-2-cyclopentyl-4-(2-fluorophenoxy)-N-(4-(methylsulfonyl)but-3-en-2-yl)pyrimidine-5-carboxamide]

Row | SMILES | IC50 [1] [nM] | GI50 [2] [nM] | GI50 [3] [nM] | IC50 [4] [nM] | IC50 [4, 5] [nM]
25 | CC(C)(C)OC[C@@H](/C=C/S(C)(=O)=O)NC(=O)c1cnc(C(C)(F)F)nc1Oc1ccccc1 [Example 96, (R,E)-N-(1-(tert-butoxy)-4-(methylsulfonyl)but-3-en-2-yl)-2-(1,1-difluoroethyl)-4-phenoxypyrimidine-5-carboxamide] | 400 | 27500 | 36.9 |  | 200
